Drawing on patent publication US8691816B2, “Pyrrole inhibitors of S-nitrosoglutathione reductase as therapeutic agents” (N30 Pharmaceuticals, Inc., priority 2008, dated 2014), this text covers IC50 for 28 molecules.

Usually IC50 stands for the concentration at which inhibition is half-maximal.

This assay addresses T1, GSNOR (GSNO Reductase) (Homo sapiens, UniProt P11766).
T1 construct: made in house; host or cells: E. coli (arabinose induction)
Briefly: GSNOR assay (in vitro inhibition of GSNOR activity, NADH absorbance at 340 nm). Format: biochemical. As to conditions: 0.240 mM GSNO, 0.300 mM NADH, 0.5 μg/mL GSNO Reductase, pH 7.4, 25° C. The method, then: Various compounds were tested in vitro for their ability to inhibit GSNOR activity. Representative compounds and their corresponding GSNOR activity are described in a paragraph before Table 1 above. GSNOR expression and purification is described in Biochemistry 2000, 39, 10720-10729.
GSNOR fermentation: Pre-cultures were grown from stabs of a GSNOR glycerol stock in 2XYT media containing 100 ug/ml ampicillin after an overnight incubation at 37° C. Cells were then added to fresh 2XYT (4 L) containing ampicillin and grown to an OD (A600) of 0.6-0.9 at 37° C. before induction. GSNOR expression was induced with 0.1% arabinose in an overnight incubation at 20° C.
GSNOR Purification: E. coli cell paste was lysed by nitrogen cavitation and the clarified lysate purified by Ni affinity chromatography on an AKTA FPLC (Amersham Pharmacia). The column was eluted in 20 mM Tris pH 8.0/250 mM NaCl with a 0-500 mM imidazole gradient. […] GSNOR was recovered in the flowthrough fraction and for crystallography is further purified by Q-Sepharose and Heparin flowthrough chromatography in 20 mM Tris pH 8.0, 1 mM DTT, 10 uM ZnSO4.
GSNOR assay: GSNO and Enzyme/NADH Solutions are made up fresh each day. The Solutions are filtered and allowed to warm to room temperature. GSNO Solution: 100 mM NaPO4 (pH 7.4), 0.480 mM GSNO. 396 μL of GSNO Solution is added to a cuvette followed by 8 μL of test compound in DMSO (or DMSO only for full reaction control) and mixed with the pipette tip. Compounds to be tested are made up at a stock concentration of 10 mM in 100% DMSO. 2 fold serial dilutions are done in 100% DMSO. 8 μL of each dilution are added to an assay so that the final concentration of DMSO in the assay is 1%. The concentrations of compounds tested range from 100 to 0.003 μM. Enzyme/NADH Solution: 100 mM NaPO4 (pH 7.4), 0.600 mM NADH, 1.0 μg/mL GSNO Reductase. 396 μL of the Enzyme/NADH Solution is added to the cuvette to start the reaction. The cuvette is placed in the Cary 3E UV/Visible Spectrophotometer and the change in 340 nm absorbance/min at 25° C. is recorded for 3 minutes. The assays are done in triplicate for each compound concentration. IC50's for each compound are calculated using the standard curve analysis in the Enzyme Kinetics Module of SigmaPlot.
Final assay conditions: 100 mM NaPO4, pH 7.4, 0.240 mM GSNO, 0.300 mM NADH, 0.5 μg/mL GSNO Reductase and 1% DMSO. Final volume: 800 μL/cuvette.

T1 sequence (P11766 whole entry): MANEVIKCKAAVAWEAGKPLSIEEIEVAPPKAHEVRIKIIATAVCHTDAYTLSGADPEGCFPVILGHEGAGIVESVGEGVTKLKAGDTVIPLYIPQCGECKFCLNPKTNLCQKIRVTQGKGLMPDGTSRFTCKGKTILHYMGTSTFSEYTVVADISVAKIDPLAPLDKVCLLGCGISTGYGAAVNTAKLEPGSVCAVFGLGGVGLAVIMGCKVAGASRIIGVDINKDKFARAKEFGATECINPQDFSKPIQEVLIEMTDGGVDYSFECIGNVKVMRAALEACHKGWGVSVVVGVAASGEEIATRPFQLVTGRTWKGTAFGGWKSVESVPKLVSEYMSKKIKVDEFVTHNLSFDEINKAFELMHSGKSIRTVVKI

In turn, `COc1ccc(-c2ccc(CCC(=O)O)n2-c2ncc(C(N)=O)s2)cc1` [Compound 238, 3-(1-(5-carbamoylthiazol-2-yl)-5-(4-methoxyphenyl)-1H-pyrrol-2-yl)propanoic acid] returned a half-maximal inhibitory concentration (IC50) of less than 5 µM. The result for `Cc1nccn1-c1ccc(-c2ccc(CCC(=O)O)n2-c2ccc3[nH]c(=O)oc3c2)cc1` [Compound 236, 3-(5-(4-(2-methyl-1H-imidazol-1-yl)phenyl)-1-(2-oxo-2,3-dihydrobenzo[d]oxazol-6-yl)-1H-pyrrol-2-yl)propanoic acid] reads less than 5 µM.

`COc1cc(-n2ccnc2C)ccc1-c1ccc(CCC(=O)O)n1-c1ccc(C(N)=O)cc1C` [Compound 146, 3-(1-(4-carbamoyl-2-methylphenyl)-5-(2-methoxy-4-(2-methyl-1H-imidazol-1-yl)phenyl)-1H-pyrrol-2-yl)propanoic acid] displayed an IC50 of less than 1 µM. As for `COc1ccc(-c2ccc(CCC(=O)O)n2-c2ccc(C(N)=O)cc2C)c(C)c1` [Compound 110, 3-(1-(4-carbamoyl-2-methylphenyl)-5-(4-methoxy-2-methylphenyl)-1H-pyrrol-2-yl)propanoic acid], the IC50 is less than 1 µM. The molecule `COc1ccc(-c2ccc(CCC(=O)O)n2-c2ccc(C(N)=O)c(Cl)c2)cc1` [Compound 221, 3-(1-(4-carbamoyl-3-chlorophenyl)-5-(4-methoxyphenyl)-1H-pyrrol-2-yl)propanoic acid] displayed an IC50 of less than 1 µM. For `Cc1nccn1-c1csc(-c2ccc(CCC(=O)O)n2-c2ccc(NS(C)(=O)=O)cc2)c1` [Compound 267, 3-(5-(4-(2-methyl-1H-imidazol-1-yl)thiophen-2-yl)-1-(4-(methylsulfonamido)-phenyl)-1H-pyrrol-2-yl)propanoic acid] the value was less than 1 µM.

On to `COc1ccc(-c2ccc(CCC(=O)O)n2-c2ccc(F)c(C#N)c2)cc1` [Compound 226, 3-(1-(3-cyano-4-fluorophenyl)-5-(4-methoxyphenyl)-1H-pyrrol-2-yl)propanoic acid], for which the IC50 is less than 5 µM.

As for `CCc1nccn1-c1ccc(-c2ccc(CCC(=O)O)n2-c2ccc(C(N)=O)cc2C)cc1` [Compound 69, 3-(1-(4-carbamoyl-2-methylphenyl)-5-(4-(2-ethyl-1H-imidazol-1-yl)phenyl)-1H-pyrrol-2-yl)propanoic acid], the IC50 was less than 1 µM. For `Cc1cc(NS(C)(=O)=O)ccc1-n1c(CCC(=O)O)ccc1-c1cc(Br)cs1` [Compound 183, 3-(5-(4-bromothiophen-2-yl)-1-(2-methyl-4-(methyl-sulfonamido)-phenyl)-1H-pyrrol-2-yl)propanoic acid] the value was less than 5 µM.

The molecule `COc1ccc(-c2ccc(CCC(=O)O)n2-c2ccc3c(N)noc3c2)cc1` [Compound 231, 3-(1-(3-aminobenzo[d]isoxazol-6-yl)-5-(4-methoxyphenyl)-1H-pyrrol-2-yl)propanoic acid] returned an IC50 of less than 1 µM. The result for `COc1ccc(-c2ccc(CCC(=O)O)n2-c2ccc(C(N)=O)s2)cc1` [Compound 237, 3-(1-(5-carbamoylthiophen-2-yl)-5-(4-methoxyphenyl)-1H-pyrrol-2-yl)propanoic acid] reads less than 5 µM. Molecule `Cc1cc(S(N)(=O)=O)ccc1-n1c(CCC(=O)O)ccc1-c1ccc(-n2ccnc2C)s1` [Compound 194] came in with an IC50 of less than 1 µM. Molecule `COc1ccc(-c2ccc(CCC(=O)O)n2-c2ccc3ccncc3c2)cc1` [Compound 223, 3-(1-(isoquinolin-7-yl)-5-(4-methoxyphenyl)-1H-pyrrol-2-yl)propanoic acid] had a 50% inhibitory concentration (IC50) of less than 5 µM. The result for `COc1ccc(-c2ccc(CCC(=O)O)n2-c2ccc(O)c(F)c2)cc1` [Compound 229, 3-(1-(3-fluoro-4-hydroxyphenyl)-5-(4-methoxyphenyl)-1H-pyrrol-2-yl)propanoic acid] reads less than 5 µM. For `Cc1cc(C(N)=O)ccc1-n1c(CCC(=O)O)ccc1-c1cc(-n2ccnc2)cs1` [Compound 120, 3-(5-(4-(1H-imidazol-1-yl)thiophen-2-yl)-1-(4-carbamoyl-2-methylphenyl)-1H-pyrrol-2-yl)propanoic acid] the value was less than 1 µM.

Regarding `COc1cc(Cl)ccc1-c1ccc(CCC(=O)O)n1-c1ccc(C(N)=O)cc1` [Compound 264, 3-(1-(4-carbamoylphenyl)-5-(4-chloro-2-methoxyphenyl)-1H-pyrrol-2-yl)propanoic acid], the concentration for half-maximal inhibition (IC50) is less than 1 µM. For `COc1ccc(-c2ccc(CCC(=O)O)n2-c2ccc(O)cc2Cl)cc1` [Compound 80, 3-(1-(2-chloro-4-hydroxyphenyl)-5-(4-methoxy-phenyl)-1H-pyrrol-2-yl)propanoic acid] the value was less than 1 µM. In the case of `COc1ccc(-c2ccc(CCC(=O)O)n2-c2ccc(C(N)=O)cc2C)c(Cl)c1` [Compound 118, 3-(1-(4-carbamoyl-2-methylphenyl)-5-(2-chloro-4-methoxy-phenyl)-1H-pyrrol-2-yl)propanoic acid], the IC50 was less than 1 µM. The molecule `Cc1cc2nc[nH]c2cc1-n1c(CCC(=O)O)ccc1-c1ccc(-n2ccnc2)cc1` [Compound 219, 3-(5-(4-(1H-imidazol-1-yl)phenyl)-1-(5-methyl-1H-benzo[d]imidazol-6-yl)-1H-pyrrol-2-yl)propanoic acid] had an IC50 of less than 1 µM. For the molecule `COc1cc(Cl)ccc1-c1ccc(CCC(=O)O)n1-c1ccc(O)cc1` [Compound 262, 3-(5-(4-chloro-2-methoxyphenyl)-1-(4-hydroxyphenyl)-1H-pyrrol-2-yl)propanoic acid], the IC50 was less than 1 µM.

Molecule `O=C(O)CCc1ccc(-c2ccccc2)n1-c1ccc(O)c(C(=O)O)c1` [Compound 232, 5-(2-(2-carboxyethyl)-5-phenyl-1H-pyrrol-1-yl)-2-hydroxybenzoic acid] registered a concentration for half-maximal inhibition (IC50) of less than 5 µM. As for `Cc1cc(C(N)=O)ccc1-n1c(CCC(=O)O)ccc1-c1ccc(Cl)cc1C(N)=O` [Compound 152, 3-(1-(4-carbamoyl-2-methylphenyl)-5-(2-carbamoyl-4-chloro-phenyl)-1H-pyrrol-2-yl)propanoic acid], the IC50 is less than 1 µM. For the molecule `Cc1nccn1-c1ccc(-c2ccc(CCC(=O)O)n2-c2ccc(O)cc2)s1` [Compound 273, 3-(1-(4-hydroxyphenyl)-5-(5-(2-methyl-1H-imidazol-1-yl)thiophen-2-yl)-1H-pyrrol-2-yl)propanoic acid], the IC50 was less than 1 µM. With `Cc1cc(C(N)=O)ccc1-n1c(CCC(=O)O)ccc1-c1cc(-n2ccnc2C)cs1` [Compound 144, 3-(1-(4-carbamoyl-2-methylphenyl)-5-(4-(2-methyl-1H-imidazol-1-yl)thiophen-2-yl)-1H-pyrrol-2-yl)propanoic acid], the IC50 is less than 1 µM. For `Cc1nccn1-c1ccc(-c2ccc(CCC(=O)O)n2-c2ccc3oc(=O)[nH]c3c2)cc1` [Compound 235, 3-(5-(4-(2-methyl-1H-imidazol-1-yl)phenyl)-1-(2-oxo-2,3-dihydrobenzo[d]oxazol-5-yl)-1H-pyrrol-2-yl)propanoic acid] the value was less than 1 µM. The result for `COc1ccc(-c2ccc(CCC(=O)O)n2-c2ccc3ncccc3c2)cc1` [Compound 216, 3-(5-(4-methoxyphenyl)-1-(quinolin-6-yl)-1H-pyrrol-2-yl)propanoic acid] reads less than 1 µM; that for `Cc1nccn1-c1ccc(-c2ccc(CCC(=O)O)n2-c2ccc(O)cc2)cc1` [Compound 249, 3-(1-(4-hydroxyphenyl)-5-(4-(2-methyl-1H-imidazol-1-yl)phenyl)-1H-pyrrol-2-yl)propanoic acid], less than 1 µM; that for `Cc1nccn1-c1csc(-c2ccc(CCC(=O)O)n2-c2ccc(O)cc2)c1` [Compound 255, 3-(1-(4-hydroxyphenyl)-5-(4-(2-methyl-1H-imidazol-1-yl)thiophen-2-yl)-1H-pyrrol-2-yl)propanoic acid], less than 1 µM.
